From PubChem BioAssay AID1963974 (Molecular Pharmacology Branch, DTP, NCI, 2024)
pIC50: −log10 of the molar value. Several values for one entry are separate records, joined by “and”; a condition that tells them apart may be missing. Equal entries are not always repeated.

Test system: 648629-189-R-J1-PDC spheroids with HUVEC/MSC, viability
Test: Anticancer human tumor 648629-189-R-J1-PDC patient-derived bladder carcinoma cell line growth inhibition [PI3K]
Conditions: for viability, T/C: stronger effect = lower value
How it was run: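 Multi-cell spheroids combine tumor cells with HUVEC and human MSCs, treated with targeted agents alone or with inavolisib, alpelisib, duvelisib or copanlisib. Concentrations fall in half-log steps from at or near clinical Cmax, or from 10 microM where Cmax is unknown; viability read-out.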

[1] = curve of first compound, second compound 0.0316 µM
[2] = curve of first compound, second compound 0.1 µM
[3] = curve of first compound, second compound 0.316 µM
[4] = curve of first compound, second compound 1 µM
[5] = second compound 0.0316 µM, first compound 0.0316 µM
[6] = second compound 0.0316 µM, first compound 0.1 µM
[7] = second compound 0.1 µM, first compound 0.0316 µM
[8] = second compound 0.1 µM, first compound 0.1 µM
[9] = second compound 0.316 µM, first compound 0.0316 µM
[10] = second compound 0.316 µM, first compound 0.1 µM
[11] = second compound 1 µM, first compound 0.0316 µM
[12] = second compound 1 µM, first compound 0.1 µM
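Note: spheroids exposed to agents for seven days before reading.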
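Throughout, for viability, T/C: percent of vehicle control luminescence where 100% = DMSO treated spheroids.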

For CC(C)NCC(C(=O)N1CCN(c2ncnc3c2C(C)CC3O)CC1)c1ccc(Cl)cc1 (stereo not drawn) + Cc1nc(NC(=O)N2CCCC2C(N)=O)sc1-c1ccnc(C(C)(C)C(F)(F)F)c1, the pIC50 [1] was 6.14, the pIC50 [2] was 6.11 and the pIC50 [3] was 6.19. The pIC50 [4] was 6.30, the pIC50 (curve of first compound, second compound 3.16 µM) was 6.81 and the pIC50 (curve of first compound, second compound 10 µM) was greater than 7.50. The viability, T/C [5] was 105%, the viability, T/C [6] was 82.2% and the viability, T/C (second compound 0.0316 µM, first compound 0.316 µM) was 73.8%. For the same compound, the viability, T/C (second compound 0.0316 µM, first compound 1 µM) was 40.5%, the viability, T/C (second compound 0.0316 µM, first compound 3.16 µM) was 23.2% and the viability, T/C (second compound 0.0316 µM, first compound 10 µM) was 15.7%. The viability, T/C [7] was 102%, the viability, T/C [8] was 91% and the viability, T/C (second compound 0.1 µM, first compound 0.316 µM) was 75.2%. The viability, T/C (second compound 0.1 µM, first compound 1 µM) was 42.2%, the viability, T/C (second compound 0.1 µM, first compound 3.16 µM) was 23.1% and the viability, T/C (second compound 0.1 µM, first compound 10 µM) was 12.8%. It also gave a viability, T/C [9] of 84.1%, a viability, T/C [10] of 80.6% and a viability, T/C (second compound 0.316 µM, first compound 0.316 µM) of 70.6%. The viability, T/C (second compound 0.316 µM, first compound 1 µM) was 36.7%, the viability, T/C (second compound 0.316 µM, first compound 3.16 µM) was 22% and the viability, T/C (second compound 0.316 µM, first compound 10 µM) was 12.5%. The viability, T/C [11] was 69.6%, the viability, T/C [12] was 88.4% and the viability, T/C (second compound 1 µM, first compound 0.316 µM) was 57.1%. The viability, T/C (second compound 1 µM, first compound 1 µM) was 34.2%, the viability, T/C (second compound 1 µM, first compound 3.16 µM) was 21.5% and the viability, T/C (second compound 1 µM, first compound 10 µM) was 12.4%. For the same compound, the viability, T/C (second compound 3.16 µM, first compound 0.0316 µM) was 61.1%, the viability, T/C (second compound 3.16 µM, first compound 0.1 µM) was 53.6% and the viability, T/C (second compound 3.16 µM, first compound 0.316 µM) was 43.8%. For the same compound, the viability, T/C (second compound 3.16 µM, first compound 1 µM) was 32.8%, the viability, T/C (second compound 3.16 µM, first compound 3.16 µM) was 20.8% and the viability, T/C (second compound 3.16 µM, first compound 10 µM) was 10.1%. The viability, T/C (second compound 10 µM, first compound 0.0316 µM) was 38%, the viability, T/C (second compound 10 µM, first compound 0.1 µM) was 34.6% and the viability, T/C (second compound 10 µM, first compound 0.316 µM) was 28.7%. The viability, T/C (second compound 10 µM, first compound 1 µM) was 20.1%, the viability, T/C (second compound 10 µM, first compound 3.16 µM) was 13.2% and the viability, T/C (second compound 10 µM, first compound 10 µM) was 5.54%.

In the case of CC(=O)c1c(C)c2cnc(Nc3ccc(N4CCNCC4)cn3)nc2n(C2CCCC2)c1=O, the viability, T/C (compound 0.000316 µM) was 101% [middle of 4 runs], the viability, T/C (compound 0.001 µM) was 102% [middle of 4 runs] and the viability, T/C (compound 0.00316 µM) was 115% [middle of 4 runs]. The viability, T/C (compound 0.01 µM) was 97.2% [middle of 4 runs], the viability, T/C (compound 0.0316 µM) was 100% [middle of 4 runs] and the viability, T/C (compound 0.1 µM) was 111% [middle of 4 runs]. For the same compound, the pIC50 (curve of compound) was less than 7.00.

For Cn1cnc2c(F)c(Nc3ccc(Br)cc3Cl)c(C(=O)NOCCO)cc21, the viability, T/C (compound 0.00949 µM) was 108% and 98.8% (2×) and 95.3%, the viability, T/C (compound 0.03 µM) was 96.8% [middle of 4 runs] and the viability, T/C (compound 0.0949 µM) was 99.2% [middle of 4 runs]. The viability, T/C (compound 0.3 µM) was 94.5% [middle of 4 runs], the viability, T/C (compound 0.949 µM) was 103% [middle of 4 runs] and the viability, T/C (compound 3 µM) was 84.9% [middle of 4 runs]. For the same compound, the pIC50 (curve of compound) was less than 5.52.

For CC(C)NCC(C(=O)N1CCN(c2ncnc3c2C(C)CC3O)CC1)c1ccc(Cl)cc1 (stereo not drawn), the viability, T/C (compound 0.0316 µM) was 95.2% and 106% (2×) and 98.2%, the viability, T/C (compound 0.316 µM) was 86% [middle of 4 runs] and the viability, T/C (compound 1 µM) was 48% [middle of 4 runs]. The viability, T/C (compound 3.16 µM) was 29.7% [middle of 4 runs], the viability, T/C (compound 10 µM) was 16.6% and 15.3% (2×) and 14.4% and the IC50 (curve of compound) was 1.06 µM [middle of 4 runs].

In the case of Cn1ncnc1[C@H]1c2n[nH]c(=O)c3cc(F)cc(c23)N[C@@H]1c1ccc(F)cc1, the viability, T/C (compound 0.000316 µM) was 105% [middle of 4 runs], the viability, T/C (compound 0.001 µM) was 105% [middle of 4 runs] and the viability, T/C (compound 0.00316 µM) was 101% [middle of 4 runs]. The viability, T/C (compound 0.01 µM) was 92.9% [middle of 4 runs], the viability, T/C (compound 0.0316 µM) was 73.1% [middle of 4 runs] and the viability, T/C (compound 0.1 µM) was 63.2% [middle of 4 runs]. The pIC50 (curve of compound) was less than 7.00.

For CC(=O)c1c(C)c2cnc(Nc3ccc(N4CCNCC4)cn3)nc2n(C2CCCC2)c1=O + CC(Nc1ccc2c(c1)OCCn1cc(N3C(=O)OCC3C(F)F)nc1-2)C(N)=O, the pIC50 (curve of first compound, second compound 0.00316 µM) was less than 7.00, the pIC50 (curve of first compound, second compound 0.01 µM) was less than 7.00 and the pIC50 [1] was less than 7.00. For the same compound, the pIC50 [2] was less than 7.00, the pIC50 [3] was less than 7.00 and the pIC50 [4] was less than 7.00. It also gave a viability, T/C (second compound 0.00316 µM, first compound 0.000316 µM) of 102%, a viability, T/C (second compound 0.00316 µM, first compound 0.001 µM) of 103% and a viability, T/C (second compound 0.00316 µM, first compound 0.00316 µM) of 105%. For the same compound, the viability, T/C (second compound 0.00316 µM, first compound 0.01 µM) was 95.5%, the viability, T/C (second compound 0.00316 µM, first compound 0.0316 µM) was 108% and the viability, T/C (second compound 0.00316 µM, first compound 0.1 µM) was 112%. It also gave a viability, T/C (second compound 0.01 µM, first compound 0.000316 µM) of 101%, a viability, T/C (second compound 0.01 µM, first compound 0.001 µM) of 103% and a viability, T/C (second compound 0.01 µM, first compound 0.00316 µM) of 88%. For the same compound, the viability, T/C (second compound 0.01 µM, first compound 0.01 µM) was 99.4%, the viability, T/C (second compound 0.01 µM, first compound 0.0316 µM) was 98.9% and the viability, T/C (second compound 0.01 µM, first compound 0.1 µM) was 104%. It also gave a viability, T/C (second compound 0.0316 µM, first compound 0.000316 µM) of 88.5%, a viability, T/C (second compound 0.0316 µM, first compound 0.001 µM) of 105% and a viability, T/C (second compound 0.0316 µM, first compound 0.00316 µM) of 95.9%. It also gave a viability, T/C (second compound 0.0316 µM, first compound 0.01 µM) of 99.9%, a viability, T/C [5] of 97.4% and a viability, T/C [6] of 96.4%. The viability, T/C (second compound 0.1 µM, first compound 0.000316 µM) was 104%, the viability, T/C (second compound 0.1 µM, first compound 0.001 µM) was 92.1% and the viability, T/C (second compound 0.1 µM, first compound 0.00316 µM) was 82.8%. The viability, T/C (second compound 0.1 µM, first compound 0.01 µM) was 88.3%, the viability, T/C [7] was 96.2% and the viability, T/C [8] was 102%. The viability, T/C (second compound 0.316 µM, first compound 0.000316 µM) was 81.5%, the viability, T/C (second compound 0.316 µM, first compound 0.001 µM) was 87.2% and the viability, T/C (second compound 0.316 µM, first compound 0.00316 µM) was 85%. The viability, T/C (second compound 0.316 µM, first compound 0.01 µM) was 82.4%, the viability, T/C [9] was 76.4% and the viability, T/C [10] was 94.5%. The viability, T/C (second compound 1 µM, first compound 0.000316 µM) was 67%, the viability, T/C (second compound 1 µM, first compound 0.001 µM) was 65.7% and the viability, T/C (second compound 1 µM, first compound 0.00316 µM) was 78.4%. For the same compound, the viability, T/C (second compound 1 µM, first compound 0.01 µM) was 80%, the viability, T/C [11] was 63.4% and the viability, T/C [12] was 71.2%.

With Cn1nccc1Nc1nccc(-c2ccn(C(CO)c3ccc(Cl)c(F)c3)c(=O)c2)n1 (stereo not drawn) the viability, T/C (compound 0.0316 µM) was 107% [middle of 4 runs], the viability, T/C (compound 0.1 µM) was 104% [middle of 4 runs] and the viability, T/C (compound 0.316 µM) was 112% [middle of 4 runs]. For the same compound, the viability, T/C (compound 1 µM) was 110% [middle of 4 runs], the viability, T/C (compound 3.16 µM) was 110% [middle of 4 runs] and the viability, T/C (compound 10 µM) was 81.2% [middle of 4 runs]. The pIC50 (curve of compound) was less than 5.00.
